Data on two molecules can be found in publication PMC7679134, “Probing the ionotropic activity of glutamate GluD2 receptor in HEK cells with genetically-engineered photopharmacology” (eLife, 2020).

What is called IC50 is the concentration at which inhibition is half-maximal. A higher IC50 goes with a need for much substance.

Numbering of substitutions follows the chain as printed.

Format in all cases: cell-based
Assay [1] has as its target T1, GluD2 (Mus musculus, UniProt Q61625, A654T/D670C).
T1 construct: gene Grid2; pcDNA3-GluD2 expressed in HEK tsA201 cells
T1 sequence (Q61625 24-1007 A654T/D670C): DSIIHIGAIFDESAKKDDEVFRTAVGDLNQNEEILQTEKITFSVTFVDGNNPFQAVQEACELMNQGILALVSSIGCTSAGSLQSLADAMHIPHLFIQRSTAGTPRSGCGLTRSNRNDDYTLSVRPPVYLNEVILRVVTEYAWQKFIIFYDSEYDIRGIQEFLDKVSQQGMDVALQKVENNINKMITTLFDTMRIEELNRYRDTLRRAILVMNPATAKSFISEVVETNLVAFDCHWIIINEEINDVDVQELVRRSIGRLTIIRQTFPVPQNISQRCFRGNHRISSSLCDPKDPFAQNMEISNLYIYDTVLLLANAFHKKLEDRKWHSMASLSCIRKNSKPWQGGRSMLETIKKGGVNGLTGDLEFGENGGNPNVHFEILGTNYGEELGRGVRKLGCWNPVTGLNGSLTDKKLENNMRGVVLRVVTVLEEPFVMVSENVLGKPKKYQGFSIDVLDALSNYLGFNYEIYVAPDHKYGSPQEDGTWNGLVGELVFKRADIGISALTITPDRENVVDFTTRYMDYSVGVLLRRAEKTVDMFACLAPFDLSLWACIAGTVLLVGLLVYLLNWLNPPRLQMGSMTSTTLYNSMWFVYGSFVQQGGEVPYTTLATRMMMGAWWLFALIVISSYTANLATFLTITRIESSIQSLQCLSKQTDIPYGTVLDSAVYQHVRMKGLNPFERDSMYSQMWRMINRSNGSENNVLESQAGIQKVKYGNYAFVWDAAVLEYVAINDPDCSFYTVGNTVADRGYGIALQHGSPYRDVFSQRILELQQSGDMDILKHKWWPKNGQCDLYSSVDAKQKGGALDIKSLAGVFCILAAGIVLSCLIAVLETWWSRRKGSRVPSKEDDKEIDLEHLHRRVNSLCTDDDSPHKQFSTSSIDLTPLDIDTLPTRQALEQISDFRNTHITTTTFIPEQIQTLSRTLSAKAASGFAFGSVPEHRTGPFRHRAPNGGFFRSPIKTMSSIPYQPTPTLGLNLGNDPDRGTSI
In words: whole-cell patch-clamp photoswitching after covalent labeling.

Assay [2] addresses T2, GluD2 (Mus musculus, UniProt Q61625, I677C).
T2 construct: gene Grid2; non-Lurcher GluD2 (LiGluD2) co-expressed with mGlu1b in HEK tsA201 cells
T2 sequence (Q61625 24-1007 I677C): T1 sequence (Q61625 24-1007 A654T/D670C) with T631A, C647D, I654C
In words: patch-clamp of DHPG-induced current under […] vs […] nm light; WT control insensitive. Background: The patch-clamp technique gives a direct electrical read-out from membranes.

In assay [3] the target is T3, GluD2 (Mus musculus, UniProt Q61625, A654T/Q674C).
T3 construct: gene Grid2; pcDNA3-GluD2 expressed in HEK tsA201 cells
T3 sequence (Q61625 24-1007 A654T/Q674C): T1 sequence (Q61625 24-1007 A654T/D670C) with C647D, Q651C
Kind of assay: whole-cell patch-clamp photoswitching after covalent labeling.

In assay [4] the target is T4, GluD2 (Mus musculus, UniProt Q61625, A654T/Q666C).
T4 construct: gene Grid2; pcDNA3-GluD2 expressed in HEK tsA201 cells
T4 sequence (Q61625 24-1007 A654T/Q666C): T1 sequence (Q61625 24-1007 A654T/D670C) with Q643C, C647D
The description is as above.

Assay [5] addresses T5, GluD2 (Mus musculus, UniProt Q61625, A654T/I677C).
T5 construct: gene Grid2; pcDNA3-GluD2 expressed in HEK tsA201 cells, conjugated with MAGu
T5 sequence (Q61625 24-1007 A654T/I677C): T1 sequence (Q61625 24-1007 A654T/D670C) with C647D, I654C
In words: whole-cell patch-clamp dose-response ([…]) under […] nm light; […] under […] nm.

In the case of `N=C(N)NCC(=O)Nc1ccc(/N=N/c2ccc(NC(=O)CCN3C(=O)C=CC3=O)cc2)cc1` [MAGu], the entries for the “% photoswitching (relative to pentamidine block)” value at GluD2 [1], at GluD2 [3] and at GluD2 [4] were 14.6 % photoswitching (relative to pentamidine block), 20.5 % photoswitching (relative to pentamidine block) and 15.5 % photoswitching (relative to pentamidine block), respectively. Also, the “% reduction of DHPG-induced current (535 vs 380 nm)” value on GluD2 [2] is listed as 22.8 % reduction of DHPG-induced current (535 vs 380 nm).

In the case of `N=C(N)c1ccc(OCCCCCOc2ccc(C(=N)N)cc2)cc1` [Pentamidine], the IC50 against GluD2 [5] came to 5.1 µM.
